Nine compounds from patent US20250333424A1, “ANTIVIRAL COMPOUNDS” (Gilead Sciences, Inc., priority 2024, published 2025) can be followed below.

The EC50 is the concentration at which the effect is half-maximal. The low end stands for greater potency, the high end for weaker potency.

This assay relates to monocytic THP1 cells infected with HIV VSV-G pseudotyped GFP-NEF reporter virus. Kind of assay: cells. It counts as cell-based. The note with it: Human immunodeficiency virus 1, THP-1, 24 h.
`Cc1cc(/C=C/C#N)cc(C)c1Oc1nc(NC23CC(C#N)(C2)C3)nc2[nH]nc(C(F)F)c12` [Compound 91, (E)-3-((4-(4-(2-cyanovinyl)-2,6-dimethylphenoxy)-3-(difluoromethyl)-1H-pyrazolo[3,4-d]pyrimidin-6-yl)amino)bicyclo[1.1.1]pentane-1-carbonitrile]: a half-maximal response (EC50) required 42.3 nM.

For the compound `Cc1cc(/C=C/C#N)cc(C)c1Oc1nc(NC23CC(C#N)(C2)C3)nc2c1C1(C)OCC3(CCOCC3)CN1C2=O` (stereo not drawn) [Example 200, (E)-3-((4′-(4-(2-cyanovinyl)-2,6-dimethylphenoxy)-4b′-methyl-10′-oxo-2,3,4b′,5,6,10′-hexahydro-6′H,8′H-spiro[pyran-4,7′-pyrimido[5′,4′:3,4]pyrrolo[2,1-b][1,3]oxazin]-2′-yl)amino)bicyclo[1.1.1]pentane-1-carbonitrile], the EC50 was determined as 175 nM.

Compound `Cc1cc(/C=C/C#N)cc(C)c1Oc1nc(NC23CC(C#N)(C2)C3)nc2c1C1(C)OCCN1C2=O` (stereo not drawn) [Compound 273, (E)-3-((4-(4-(2-cyanovinyl)-2,6-dimethylphenoxy)-4b-methyl-9-oxo-4b,6,7,9-tetrahydrooxazolo[3′,2′:1,5]pyrrolo[3,4-d]pyrimidin-2-yl)amino)bicyclo[1.1.1]pentane-1-carbonitrile] displayed an EC50 of 16 nM.

`Cc1cc(/C=C/C#N)cc(C)c1Oc1nc(NC23CC(C#N)(C2)C3)nc2c1C1(C)OC[C@@H](F)CN1C2=O` (stereo partly drawn) [Example 201, 3-(((7S)-4-(4-((E)-2-cyanovinyl)-2,6-dimethylphenoxy)-7-fluoro-4b-methyl-10-oxo-4b,7,8,10-tetrahydro-6H-pyrimido[5′,4′:3,4]pyrrolo[2,1-b][1,3]oxazin-2-yl)amino)bicyclo[1.1.1]pentane-1-carbonitrile] displayed an EC50 of 88.6 nM.

On to `C=C1NC(=O)c2nc(NC34CC(C#N)(C3)C4)nc(Oc3c(C)cc(/C=C/C#N)cc3C)c21` [Compound 139, (E)-3-((4-(4-(2-cyanovinyl)-2,6-dimethylphenoxy)-5-methylene-7-oxo-6,7-dihydro-5H-pyrrolo[3,4-d]pyrimidin-2-yl)amino)bicyclo[1.1.1]pentane-1-carbonitrile], for which the EC50 came out at 8.27 nM.

`C=Cc1c2c(Oc3c(C)cc(/C=C/C#N)cc3C)nc(NC34CC(C#N)(C3)C4)nc2nn1C` [Compound 88, (E)-3-((4-(4-(2-cyanovinyl)-2,6-dimethylphenoxy)-2-methyl-3-vinyl-2H-pyrazolo[3,4-d]pyrimidin-6-yl)amino)bicyclo[1.1.1]pentane-1-carbonitrile] returned an EC50 of 23.4 nM.

As for `Cc1cc(/C=C/C#N)cc(C)c1Oc1nc(NC23CC(C#N)(C2)C3)nc2c1C(O)(CF)N(C1CC1)C2=O` (stereo not drawn) [Compound 267, (E)-3-((4-(4-(2-cyanovinyl)-2,6-dimethylphenoxy)-6-cyclopropyl-5-(fluoromethyl)-5-hydroxy-7-oxo-6,7-dihydro-5H-pyrrolo[3,4-d]pyrimidin-2-yl)amino)bicyclo[1.1.1]pentane-1-carbonitrile], the EC50 was 80.3 nM.

`Cc1cc(/C=C/C#N)cc(C)c1Oc1nc(NC23CC(C#N)(C2)C3)nc2nn(C(F)F)nc12` (single isomer, unassigned) [Compound 22, (E)-3-((7-(4-(2-cyanovinyl)-2,6-dimethylphenoxy)-2-(difluoromethyl)-2H-[1,2,3]triazolo[4,5-d]pyrimidin-5-yl)amino)bicyclo[1.1.1]pentane-1-carbonitrile]: the EC50 turned out to be 259 nM.

In turn, `Cc1cc(/C=C/C#N)cc(C)c1Oc1nc(NC23CC(C#N)(C2)C3)nc2nn(C)c(Cl)c12` (single isomer, unassigned) [Compound 95, (E)-3-((3-chloro-4-(4-(2-cyanovinyl)-2,6-dimethylphenoxy)-1-methyl-11H-pyrazolo[3,4-d]pyrimidin-6-yl)amino)bicyclo[1.1.1]pentane-1-carbonitrile] returned an EC50 of 30.6 nM.
